Reference: US12024489B2, “Complex salt of rupestonic acid and alkaloid, preparation method therefor and use thereof” (XIAMEN INSTITUTE OF RARE EARTH MATERIALS, priority 2022, dated 2024)

What was measured:
[1] = test system: cervical carcinoma cell line (Hela); experiment: In vitro anti-tumor activity test (CCK8), cervical carcinoma cell line; assay type: cell-based; settings: Hela cells, 48 h incubation, CCK8, absorbance 450 nm
Protocol: (§1) The obtained Artemisia Rupestris complex salts were subjected to an in vitro anti-tumor activity test, in which the in vitro inhibitory activity of the Artemisia Rupestris complex salts on the lung adenocarcinoma cell line (A549) and cervical carcinoma cell line (Hela) was mainly researched. The specific test process was illustrated by the process for testing the lung adenocarcinoma cell line (A549):
(§2) The prepared Artemisia Rupestris complex salt was weighed, added into a 5 mL plastic centrifuge tube and diluted to
(§3) 1 mL with DMSO, to obtain a test sample at an initial concentration. Then the test sample at an initial concentration was serially diluted with DMSO to obtain test samples in 5 different concentration gradients in sequence, which were stored in a refrigerator at 4° C. for later use.
(§4) The lung adenocarcinoma cell line (A549) was incubated in an incubator for 24 h under the conditions of 37° C., 5% CO2, and saturated humidity. When the cells were in logarithmic growth phase, the culture supernatant was discarded, and the residue was digested with 0.25% trypsin-EDTA solution. Then, the digestion was terminated with high glucose medium. The cells were seeded in a 96-well plate with a cell density of 5000 cells/well. The 96-well plate was incubated in an incubator for 24 h. Then the cell culture supernatant in the 96-well plate was discarded. 100 μL of high glucose medium was added to the 96-well plate, and test samples at different concentrations were added to wells at 1 μL/well (5 duplicate wells were set for each concentration). After the plate was incubated in an incubator for 48 h under the conditions of 37° C., saturated humidity and 5% CO2, 10 μL of CCK8 was added to each well, and the plate was then incubated in the incubator at 37° C. for 1-4 h. The absorbance of each well at 450 nm was measured on a multifunctional microplate reader. Inhibition rate %=[(ODcontrol cells−ODtreatment cells)/(ODcontrol cells−ODblank)]×100. Negative control was a mixed solution of Vhigh glucose medium and VDMSO at a ratio of 10:1.
The process for testing the inhibition of those compounds on the cervical cancer cell line (Hela) was the same as above.

[2] = test system: lung adenocarcinoma cell line (A549); experiment: In vitro anti-tumor activity test (CCK8), lung adenocarcinoma cell line; assay type: cell-based; settings: A549 cells, 48 h incubation, CCK8, absorbance 450 nm
Protocol: as §1, §2, §3, §4

In the case of `O=C1CCC[C@@H]2[C@H]3CCCN4CCC[C@@H](CN12)[C@@H]34` [Matrine], the IC50 ([1]; Homo sapiens) is reported as 774 µM and the IC50 ([2]; Homo sapiens) is reported as 6370 µM.

`O=C1CCC[C@@H]2[C@H]3CCC[N+]4([O-])CCC[C@@H](CN12)[C@@H]34` (stereo partly shown) [Oxymatrine] gave an IC50 ([1]; Homo sapiens) of 0.95 µM.

For `C=C(C(=O)O)[C@H]1CC[C@H](C)[C@@H]2CC(=O)C(C)=C2C1` [Rupestonic acid], the “IC50 (μM) Hela” value [1] was “Inactive” and the “IC50 (μM) A549” value [2] was “Inactive”.

Molecule `O=C1C=CC[C@@H]2[C@H]3CCCN4CCC[C@@H](CN12)[C@@H]34` [Sophocarpine] has an IC50 ([1]; Homo sapiens) of 122 µM and an IC50 ([2]; Homo sapiens) of 241 µM.

With `O=C1CCC[C@@H]2[C@H]3CCCN4CCC[C@H](CN12)[C@@H]34` [Sophoridine] the IC50 ([1]; Homo sapiens) was 1490 µM and the IC50 ([2]; Homo sapiens) was 16000 µM.

“complex salt of rupestonic acid and matrine” gave an IC50 [1] of 11.8 µM and an IC50 [2] of 1.49 µM.

Molecule “complex salt of rupestonic acid and oxymatrine” has an IC50 [1] of 25.2 µM.

“complex salt of rupestonic acid and sophocarpine” was tested, and the IC50 [1] was 115 µM and the IC50 [2] was 714 µM.

“complex salt of rupestonic acid and sophoridine” gave an IC50 [1] of 17.9 µM and an IC50 [2] of 61.3 µM.
